US20170334899A1, “AMINO-SUBSTITUTED ISOTHIAZOLES” (Bayer Pharma Aktiengesellschaft, priority 2014, published 2017)

Legend:
Type in all cases: cell-based
[1] = tested on: human cervical tumor cell line HeLa (ATCC CCL-2); assay: SAC-Formation - Paclitaxel-Induced Assay; settings: Homo sapiens, HeLa, 24 h, HeLa cells, paclitaxel 0.05 μM, test range 0.005 μM-20 μM, read-out: IC50 [mol/l] SAC-Formation - Paclitaxel-Induced Assay
Outline: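 HeLa cells incubated overnight at 37° C, then given paclitaxel (0.05 μM final) plus test compound (0.005–20 μM, 0.5% DMSO) together for 24 h at 37° C. Fixed cells stained for phospho-histone H3 Ser10 (mitotic cells) and Hoechst 33342 (cell count); imaging-derived mitotic index fitted by four-parameter Hill equation.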

HeLa-MaTu-ADR = assay: Proliferation assay (crystal violet), HeLa-MaTu-ADR; settings: 96 h; HeLa-MaTu-ADR cells; 4 days incubation; crystal violet staining; read-out: IC50 inhibition of proliferation, HeLa-MaTu-ADR
Method: (§1) Cultivated tumor cells (cells were ordered from ATCC, except HeLa-MaTu and HeLa-MaTu-ADR, which were ordered from EPO-GmbH, Berlin) were plated at a density of 1000 to 5000 cells/well, depending on the growth rate of the respective cell line, in a 96-well multititer plate in 200 μL of their respective growth medium supplemented 10% fetal calf serum. After 24 hours, the cells of one plate (zero-point plate) were stained with crystal violet (see below), while the medium of the other plates was replaced by fresh culture medium (200 μl), to which the test substances were added in various concentrations (0 μM, as well as in the range of 0.001-10 μM; the final concentration of the solvent dimethyl sulfoxide was 0.5%). The cells were incubated for 4 days in the presence of test substances. Cell proliferation was determined by staining the cells with crystal violet: the cells were fixed by adding 20 μl/measuring point of an 11% glutaric aldehyde solution for 15 minutes at room temperature. After three washing cycles of the fixed cells with water, the plates were dried at room temperature. The cells were stained by adding 100 μl/measuring point of a 0.1% crystal violet solution (pH 3.0). After three washing cycles of the stained cells with water, the plates were dried at room temperature. The dye was dissolved by adding 100 μl/measuring point of a 10% acetic acid solution. Absorbtion was determined by photometry at a wavelength of 595 nm. The change of cell number, in percent, was calculated by normalization of the measured values to the aborbtion values of the zero-point plate (=0%) and the absorbtion of the untreated (0 μm) cells (=100%). The IC50 values were determined by means of a 4 parameter fit.

NCI-H460 = assay: Proliferation assay (crystal violet), NCI-H460; settings: Homo sapiens, 96 h; NCI-H460 cells; 4 days incubation; crystal violet staining; read-out: IC50 inhibition of proliferation, NCI-H460
Method: as §1

DU145 = assay: Proliferation assay (crystal violet), DU145; settings: Homo sapiens, DU-145, 96 h; DU145 cells; 4 days incubation; crystal violet staining; read-out: IC50 inhibition of proliferation, DU145
Method: as §1

Caco-2 = assay: Proliferation assay (crystal violet), Caco-2; settings: Homo sapiens, 96 h; Caco-2 cells; 4 days incubation; crystal violet staining; read-out: IC50 inhibition of proliferation, Caco2
Method: as §1

B16F10 = assay: Proliferation assay (crystal violet), B16F10; settings: Mus musculus, B16-F10, 96 h; B16F10 cells; 4 days incubation; crystal violet staining; read-out: IC50 inhibition of proliferation, B16F10
Method: as §1

IC50 [1] | Compound | also measured
420 nM | Cc1nsc(Nc2cncc(C(F)(F)F)n2)c1C(=O)Nc1ccc(OC2CCN(CC(F)(F)F)CC2)nc1 [Example 16, 3-Methyl-N-(6-{[1-(2,2,2-trifluoroethyl)piperidin-4-yl]oxy}pyridin-3-yl)-5-{[6-(trifluoromethyl)pyrazin-2-yl]amino}-1,2-thiazole-4-carboxamide] | IC50 (HeLa-MaTu-ADR): 290 nM; IC50 (NCI-H460): 150 nM; IC50 (DU145): 720 nM; IC50 (Caco-2): 240 nM; IC50 (B16F10): 290 nM
59 nM | Cc1nsc(Nc2cnc3ccccc3n2)c1C(=O)Nc1ccc(OC2CCN(C(=O)OC(C)(C)C)CC2)nc1 [Example 18, tert-Butyl 4-{[5-({[3-methyl-5-(quinoxalin-2-ylamino)-1,2-thiazol-4-yl]carbonyl}-amino)pyridin-2-yl]oxy}piperidine-1-carboxylate] | IC50 (HeLa-MaTu-ADR): 380 nM; IC50 (NCI-H460): 640 nM; IC50 (DU145): 910 nM; IC50 (Caco-2): 270 nM; IC50 (B16F10): 550 nM
4100 nM | Cc1nsc(Nc2cnc3ccccc3n2)c1C(=O)Nc1ccc(Oc2ccc(SC(F)(F)F)cc2)nc1 [Example 233, 3-methyl-5-(quinoxalin-2-ylamino)-N-(6-{4-[(trifluoromethyl)sulfanyl]phenoxy}pyridin-3-yl)-1,2-thiazole-4-carboxamide] | 
10000 nM | Cc1nsc(Nc2cnc3ccccc3n2)c1C(=O)Nc1ccc(NC2CCN(C(=O)OC(C)(C)C)CC2)nc1 [Example 234, tert-butyl 4-{[5-({[3-methyl-5-(quinoxalin-2-ylamino)-1,2-thiazol-4-yl]carbonyl}amino)pyridin-2-yl]amino}piperidine-1-carboxylate] | 
1500 nM | COc1ccc(NC(=O)c2c(C)nsc2Nc2cnc3ccccc3n2)c(CC#N)n1 [Example 235, N-[2-(cyanomethyl)-6-methoxypyridin-3-yl]-3-methyl-5-(quinoxalin-2-ylamino)-1,2-thiazole-4-carboxamide] | 
20000 nM | Cc1nsc(Nc2cnc3ccccc3n2)c1C(=O)Nc1ccc(NCCC(=O)OC(C)(C)C)nc1 [Example 236, tert-butyl N-[5-({[3-methyl-5-(quinoxalin-2-ylamino)-1,2-thiazol-4-yl]carbonyl}amino)pyridin-2-yl]-beta-alaninate] | 
20000 nM | COC(=O)c1cc(NC(=O)c2c(C)nsc2Nc2cnc3ccccc3n2)cc(C(=O)OC)c1 [Example 237, dimethyl 5-({[3-methyl-5-(quinoxalin-2-ylamino)-1,2-thiazol-4-yl]carbonyl}amino)isophthalate] | 
9700 nM | Cc1nsc(Nc2cnc3ccccc3n2)c1C(=O)Nc1ccc(NCC2CCN(C(=O)OC(C)(C)C)CC2)nc1 [Example 238, tert-butyl 4-({[5-({[3-methyl-5-(quinoxalin-2-ylamino)-1,2-thiazol-4-yl]carbonyl}amino)pyridin-2-yl]amino}methyl)piperidine-1-carboxylate] | 
630 nM | Cc1nsc(Nc2cc(C#N)ccn2)c1C(=O)Nc1cccc(C(=O)OC(C)(C)C)c1 [Example 239, tert-butyl 3-[({5-[(4-cyanopyridin-2-yl)amino]-3-methyl-1,2-thiazol-4-yl}carbonyl)amino]benzoate] | 
70 nM | Cc1nsc(Nc2ccc(C#N)cn2)c1C(=O)Nc1cccc(C(=O)OC(C)(C)C)c1 [Example 240, tert-butyl 3-[({5-[(5-cyanopyridin-2-yl)amino]-3-methyl-1,2-thiazol-4-yl}carbonyl)amino]benzoate] | 
2300 nM | Cc1nsc(Nc2cnc3ccccc3n2)c1C(=O)Nc1ccc(NC2CCCN(C(=O)OC(C)(C)C)C2)nc1 (stereo not drawn) [Example 241, tert-butyl 3-{[5-({[3-methyl-5-(quinoxalin-2-ylamino)-1,2-thiazol-4-yl]carbonyl}amino)pyridin-2-yl]amino}piperidine-1-carboxylate] | 
3300 nM | Cc1nsc(Nc2cc(C#N)ccn2)c1C(=O)Nc1ccc(NC2CCCNC2)nc1 (stereo not drawn) [Example 242, 5-[(4-cyanopyridin-2-yl)amino]-3-methyl-N-[6-(piperidin-3-ylamino)pyridin-3-yl]-1,2-thiazole-4-carboxamide] | 
6500 nM | Cc1cc(C)n(-c2ccccc2NC(=O)c2c(C)nsc2Nc2cnc3ccccc3n2)n1 [Example 243, N-[2-(3,5-dimethyl-1H-pyrazol-1-yl)phenyl]-3-methyl-5-(quinoxalin-2-ylamino)-1,2-thiazole-4-carboxamide] | 
3900 nM | Cc1nsc(Nc2cnc3ccccc3n2)c1C(=O)Nc1ccc(NCCNC(=O)OC(C)(C)C)nc1 [Example 244, tert-butyl (2-{[5-({[3-methyl-5-(quinoxalin-2-ylamino)-1,2-thiazol-4-yl]carbonyl}amino)pyridin-2-yl]amino}ethyl)carbamate] | 
1700 nM | Cc1nsc(Nc2cnc3ccccc3n2)c1C(=O)Nc1ccc(Nc2ccc(F)c(F)c2)nc1 [Example 245, N-{6-[(3,4-difluorophenyl)amino]pyridin-3-yl}-3-methyl-5-(quinoxalin-2-ylamino)-1,2-thiazole-4-carboxamide] | 
77 nM | Cc1nsc(Nc2ccc(C#N)cn2)c1C(=O)Nc1ccc(S(C)(=O)=O)cc1 [Example 246, 5-[(5-cyanopyridin-2-yl)amino]-3-methyl-N-[4-(methylsulfonyl)phenyl]-1,2-thiazole-4-carboxamide] | 
140 nM | CCN(CC)CCNC(=O)c1cccc(NC(=O)c2c(C)nsc2Nc2cnccn2)c1 [Example 247, N-(3-{[2-(diethylamino)ethyl]carbamoyl}phenyl)-3-methyl-5-(pyrazin-2-ylamino)-1,2-thiazole-4-carboxamide] | 
